The values that follow come from ChEMBL document CHEMBL5335844, “Design, synthesis and preliminary biological evaluation of rivastigmine-INDY hybrids as multitarget ligands against Alzheimer's disease by targeting butyrylcholinesterase and DYRK1A/CLK1 kinases” (RSC Med Chem, 2024).

One data set addresses Cholinesterase (Equus caballus, UniProt P81908). Kind of data set: Inhibition of equine serum BuChE using butyrylthiocholine iodide as substrate preincubated for 5 mins followed by substrate addition and measured every min for 10 mins by Ellman's method. In kind it is cell-free. For orientation: DTNB colorimetry detects thiols as they appear.
Data set [1] addresses T1, Acetylcholinesterase (Homo sapiens, UniProt P22303). Kind of data set: Inhibition of human erythrocyte AChE using acetylthiocholine iodide as substrate preincubated for 5 mins followed by substrate addition and measured every min for 10 mins by Ellman's method.
In data set [2] the target is Cholinesterase (Equus caballus) (UniProt P81908). In words: Inhibition of equine serum BuChE at 10 uM using butyrylthiocholine iodide as substrate preincubated for 5 mins followed by substrate addition and measured every min for 10 mins by Ellman's method relative to control. Format: cell-free. The conditions noted are these: time 15.0 min.
Data set [3] addresses T2, Dual specificity tyrosine-phosphorylation-regulated kinase 1A (Homo sapiens, UniProt Q13627). Kind of data set: Inhibition of human DYRK1A using RRRFRPASPLRGPPK as substrate incubated for 40 mins in presence of Mg/[gamma-33P]-ATP by scintillation counting method.
The target of data set [4] is T3, Dual specificity protein kinase CLK1 (Homo sapiens, UniProt P49759). Kind of data set: Inhibition of human CLK1 using ERMRPRKRQGSVRRRV as substrate incubated for 40 mins in presence of Mg/[gamma-33P]-ATP by scintillation counting method.
Target sequence in this assay (P49759 whole entry): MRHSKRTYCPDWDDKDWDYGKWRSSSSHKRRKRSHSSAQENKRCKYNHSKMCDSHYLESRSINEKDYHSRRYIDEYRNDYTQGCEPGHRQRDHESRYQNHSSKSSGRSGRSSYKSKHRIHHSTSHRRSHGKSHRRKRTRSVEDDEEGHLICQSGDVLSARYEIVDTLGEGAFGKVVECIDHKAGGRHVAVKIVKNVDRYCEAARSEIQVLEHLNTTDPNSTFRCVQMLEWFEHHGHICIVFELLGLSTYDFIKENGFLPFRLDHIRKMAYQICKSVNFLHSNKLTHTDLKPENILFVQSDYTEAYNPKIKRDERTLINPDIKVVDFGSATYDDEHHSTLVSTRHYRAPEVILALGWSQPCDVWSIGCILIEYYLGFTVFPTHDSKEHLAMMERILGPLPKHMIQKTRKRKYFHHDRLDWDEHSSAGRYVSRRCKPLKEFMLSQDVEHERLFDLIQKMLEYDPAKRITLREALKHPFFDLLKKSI
The target in data set [5] is T2, Dual specificity tyrosine-phosphorylation-regulated kinase 1A. In words: Inhibition of human DYRK1A at 10 uM using RRRFRPASPLRGPPK as substrate incubated for 40 mins in presence of Mg/[gamma-33P]-ATP by scintillation counting method relative to control.
Data set [6] concerns the target T1, Acetylcholinesterase. Kind of data set: Inhibition of human erythrocyte AChE at 10 uM using acetylthiocholine iodide as substrate preincubated for 5 mins followed by substrate addition and measured every min for 10 mins by Ellman's method relative to control. The note with it: time 15.0 min.
Data set [7] is described as follows: Chromatographic hydrophobicity index, logD of the compound at pH 7.4 by reversed phase HPLC analysis. In kind it is physicochemical. The conditions noted are these: buffer.
Data set [8] can be described thus: Solubility of the compound in PBS at pH 7.4 by HPLC analysis. Format: physicochemical. The conditions noted are these: buffer.
Data set [9] addresses T3, Dual specificity protein kinase CLK1. Kind of data set: Inhibition of human CLK1 at 10 uM using ERMRPRKRQGSVRRRV as substrate incubated for 40 mins in presence of Mg/[gamma-33P]-ATP by scintillation counting method relative to control.
Target sequence in this assay (P49759 whole entry, looked up): as the sequence (P49759 whole entry) above

T1 sequence (P22303 whole entry): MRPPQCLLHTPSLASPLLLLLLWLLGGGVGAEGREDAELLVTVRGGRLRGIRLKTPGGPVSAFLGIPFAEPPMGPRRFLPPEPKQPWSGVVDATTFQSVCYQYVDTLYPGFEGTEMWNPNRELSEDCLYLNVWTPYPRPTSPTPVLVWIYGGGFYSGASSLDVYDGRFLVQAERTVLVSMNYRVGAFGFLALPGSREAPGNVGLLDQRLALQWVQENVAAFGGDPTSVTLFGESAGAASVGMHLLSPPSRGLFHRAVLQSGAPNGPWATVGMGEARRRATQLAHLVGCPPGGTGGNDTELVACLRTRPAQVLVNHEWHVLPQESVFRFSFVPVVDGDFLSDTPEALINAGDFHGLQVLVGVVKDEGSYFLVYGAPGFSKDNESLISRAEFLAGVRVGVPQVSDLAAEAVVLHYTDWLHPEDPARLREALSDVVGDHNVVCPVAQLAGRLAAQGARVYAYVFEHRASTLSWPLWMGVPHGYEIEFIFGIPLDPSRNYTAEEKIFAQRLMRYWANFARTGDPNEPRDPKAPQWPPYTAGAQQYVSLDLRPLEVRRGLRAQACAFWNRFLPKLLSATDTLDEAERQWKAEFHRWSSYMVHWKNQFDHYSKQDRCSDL
Sequence of Cholinesterase (P81908 whole entry): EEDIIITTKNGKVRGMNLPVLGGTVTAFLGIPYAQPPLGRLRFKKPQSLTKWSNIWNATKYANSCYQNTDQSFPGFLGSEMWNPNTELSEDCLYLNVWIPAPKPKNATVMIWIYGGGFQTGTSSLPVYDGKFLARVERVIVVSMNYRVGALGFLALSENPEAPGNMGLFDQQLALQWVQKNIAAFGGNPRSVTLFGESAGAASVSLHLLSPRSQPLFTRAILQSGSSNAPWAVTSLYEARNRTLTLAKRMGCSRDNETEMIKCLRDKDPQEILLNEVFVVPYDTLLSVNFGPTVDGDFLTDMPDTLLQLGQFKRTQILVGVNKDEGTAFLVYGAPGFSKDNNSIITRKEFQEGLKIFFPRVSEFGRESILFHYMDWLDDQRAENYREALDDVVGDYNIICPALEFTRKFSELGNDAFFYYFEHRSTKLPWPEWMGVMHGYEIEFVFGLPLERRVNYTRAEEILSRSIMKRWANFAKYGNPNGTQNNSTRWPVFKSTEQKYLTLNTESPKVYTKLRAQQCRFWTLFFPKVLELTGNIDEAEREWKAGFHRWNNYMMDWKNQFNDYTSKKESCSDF
Sequence of Cholinesterase (Equus caballus) (P81908 whole entry): as above

For `CCN1/C(=C/C(C)=O)Sc2ccc(OC(=O)NC3CCCCC3)cc21`, the IC50 against Cholinesterase is 13000 nM; at Acetylcholinesterase [1], 11000 nM. For the compound `CCCCCCCNC(=O)Oc1ccc2c(c1)N(Cc1cccc(C)c1)/C(=C/C(C)=O)S2`, half-maximal inhibition against Cholinesterase (IC50) required 761 nM. Still for that read-out and setting: the figure for `CCCCCCCNC(=O)Oc1ccc2c(c1)N(Cc1cccc(Cl)c1)/C(=C/C(C)=O)S2` is 703 nM.

The compound `CCCCNC(=O)Oc1ccc2c(c1)N(Cc1ccccc1)/C(=C/C(C)=O)S2` came in with an IC50 against Cholinesterase above 10000 nM. In data set [2], the inhibition was 22%. Regarding `CC(=O)/C=C1\Sc2ccc(O)cc2N1Cc1ccccc1`, the IC50 came out at 529 nM in data set [3] and 54 nM in [4]. Regarding `CC(=O)/C=C1\Sc2ccc(O)cc2N1Cc1ccc(Cl)cc1`, the inhibition in [5] worked out at 75%. For the same compound, in data set [4], the IC50 worked out at 40 nM. Consider `CCN1/C(=C/C(C)=O)Sc2ccc(OC(=O)NCCc3ccccc3)cc21`, for which the IC50 at Cholinesterase is 6000 nM; at Acetylcholinesterase [1], 20000 nM. Consider `CCCCCCCNC(=O)Oc1ccc2c(c1)N(Cc1ccc(Cl)cc1)/C(=C/C(C)=O)S2`, for which, at Cholinesterase, half-maximal inhibition (IC50) required 821 nM. As to `CCCCCCNC(=O)Oc1ccc2c(c1)N(CC)/C(=C/C(C)=O)S2`, the IC50 at Cholinesterase stood at 2000 nM; against Acetylcholinesterase [1], 14000 nM. Turning to `CCCCCCCNC(=O)Oc1ccc2c(c1)N(CC)/C(=C/C(C)=O)S2`, the IC50 against Cholinesterase amounted to 1640 nM. Still for that read-out and setting: the figure for `CCCCCCCNC(=O)Oc1ccc2c(c1)N(Cc1ccc3ccccc3c1)/C(=C/C(C)=O)S2` is above 10000 nM.

With `CCN(C)C(=O)Oc1ccc2c(c1)N(Cc1ccccc1)/C(=C/C(C)=O)S2`, the IC50 at Cholinesterase stood at 68 nM. Further, on Acetylcholinesterase [6], the inhibition is below 10%. The compound also came in with a chromatographic logD in data set [7] of 3. Further, in data set [8], the solubility result is reported as “Soluble”.

On to `CCN(C)C(=O)Oc1ccc2c(c1)N(CCc1ccccc1)/C(=C/C(C)=O)S2`, for which half-maximal inhibition against Cholinesterase (IC50) was put at 439 nM. This compound also returned an inhibition at Acetylcholinesterase [6] below 10%. The like results for `CCCCCCNC(=O)Oc1ccc2c(c1)N(Cc1ccccc1)/C(=C/C(C)=O)S2` were, in that order, 470 nM and below 10%.

In the case of `CCCCCCCNC(=O)Oc1ccc2c(c1)N(Cc1ccccc1)/C(=C/C(C)=O)S2`, on Cholinesterase, the IC50 was determined as 154 nM. Also, the inhibition on Acetylcholinesterase [6] was below 10%.

As to `CC(=O)/C=C1\Sc2ccc(O)cc2N1Cc1cccc(Cl)c1`, the IC50 in data set [3] worked out at 885 nM; in [4], 33 nM. As for `CCN1/C(=C/C(C)=O)Sc2ccc(OC(=O)NCc3cccnc3)cc21`, the IC50 on Cholinesterase was 12000 nM; on Acetylcholinesterase [1], 34000 nM. The compound `CCCCCCCNC(=O)Oc1ccc2c(c1)N(CCc1ccccc1)/C(=C/C(C)=O)S2` yielded an IC50 against Cholinesterase of 26.7 nM. In addition, the inhibition against Acetylcholinesterase [6] was below 10%. This compound also returned a chromatographic logD in data set [7] of 4.36. In the case of `CC(=O)/C=C1\Sc2ccc(O)cc2N1CCc1ccccc1`, the values for the IC50 in data set [3] and in data set [4] were 106 nM and 17 nM, respectively.

On to `COc1cccc(CN2/C(=C/C(C)=O)Sc3ccc(O)cc32)c1`, for which the IC50 in data set [3] came to 883 nM; in data set [4] it was 76 nM. Compound `CCN1/C(=C/C(C)=O)Sc2ccc(OC(=O)N(C)C)cc21` returned an IC50 on Cholinesterase above 10000 nM. In [2], this compound had an inhibition of 25%. With `CC(=O)/C=C1\Sc2ccc(O)cc2N1Cc1ccc2ccccc2c1`, the inhibition was determined as 24% in [5] and 72% in data set [9].

On to `CCCCCCCNC(=O)Oc1ccc2c(c1)N(Cc1cccc(OC)c1)/C(=C/C(C)=O)S2`, for which the IC50 against Cholinesterase was determined as 2190 nM. Turning to `CC(=O)/C=C1\Sc2ccc(O)cc2N1Cc1cccc(C)c1`, the values for the IC50 in [3] and in data set [4] were 429 nM and 39 nM, respectively.

As usually defined, the IC50 is the point on the concentration scale where inhibition reaches its midpoint. One may read the inhibition as the relative decrease from the control value, in per cent. The term chromatographic logD denotes a lipophilicity value derived from retention on a column. A low value points to lower lipophilicity.
